In the assay the target is human PRMT6 (Homo sapiens, UniProt Q96LA8). Put plainly: biochemical. An excerpt: General Materials. S-adenosylmethionine (SAM), S-adenosylhomocysteine (SAH), bicine, Tween20, dimethylsulfoxide (DMSO), bovine skin gelatin (BSG), sodium butyrate and Tris(2-carboxyethyl)phosphine hydrochloride solution (TCEP) were purchased from Sigma-Aldrich at the highest level of purity possible. ^3H-SAM was purchase from American Radiolabeled Chemicals with a specific activity of 80 Ci/mmol. 384-well streptavidin Flashplates were purchased from PerkinElmer.
Substrates. Peptide representative of human histone H4 residues 36-50 was synthesized with an N-terminal linker-affinity tag motif and a C-terminal amide cap by 21st Century Biochemicals. The peptide was purified by high-performance liquid chromatography (HPLC) to greater than 95% purity and confirmed by liquid chromatography mass spectrometry (LC-MS). The sequence was Biot-Ahx-[…]-amide and contained a monomethylated lysine at position 44 (SEQ ID NO.:5).
Molecular Biology: Full-length human PRMT6 (NM_018137.2) transcript clone was amplified from an HEK 293 cDNA library, incorporating a flanking 5′ sequence encoding a FLAG tag ([…]) (SEQ ID NO.:6) fused directly to Ser 2 of PRMT6 and a 3′ sequence encoding a hexa His sequence (HHHHHH) (SEQ ID NO.: 17) fused directly to Asp 375. The amplified gene was subcloned into pFastBacMam (Viva Biotech).
Protein Expression. Recombinant baculovirus were generated according to Bac-to-Bac kit instructions (Life Technologies). […] Infections were carried out at 37° C. for 48 hours, harvested by centrifugation, and stored at −80° C. for purification.
Protein Purification. […] Column was washed with 20 mM imidazole in the same buffer and Flag-PRMT6-His was eluted with 150 mM imidazole. Pooled fractions were dialysed against buffer Ni-A and further purified by anti-flag M2 affinity chromatography. Flag-PRMT6-His was eluted with 200 ug/ml FLAG peptide in the same buffer. Pooled fractions were dialysed in 20 mM Tris, 150 mM NaCl, 10% glycerol and 5 mM β-mercaptoethanol, pH 7.8. The purity of recovered protein was 95%.
General Procedure for PRMT6 Enzyme Assays on Peptide Substrates. The assays were all performed in a buffer consisting of 20 mM Bicine (pH=7.6), 1 mM TCEP, 0.005% BSG, and 0.002% Tween 20, prepared on the day of use. Compounds in 100% DMSO (1 ul) were spotted into a polypropylene 384-well V-bottom plates (Greiner) using a Platemate Plus outfitted with a 384-channel head (Thermo Scientific). DMSO (1 ul) was added to Columns 11, 12, 23, 24, rows A-H for the maximum signal control and 1 ul of SAH, a known product and inhibitor of PRMT6, was added to columns 11, 12, 23, 24, rows I-P for the minimum signal control. A cocktail (40 ul) containing the PRMT6 enzyme was added by Multidrop Combi (Thermo-Fisher). The compounds were allowed to incubate with PRMT6 for 30 min at room temperature, then a cocktail (10 ul) containing SAM and peptide was added to initiate the reaction (final volume=51 ul). The final concentrations of the components were as follows: PRMT6 was 1 nM, ^3H-SAM was 200 nM, non-radiolabeled SAM was 250 nM, peptide was 75 nM, SAH in the minimum signal control wells was 1 mM, and the DMSO concentration was 2%. The assays were stopped by the addition of non-radiolabeled SAM (10 ul) to a final concentration of 400 uM, which dilutes the ^3H-SAM to a level where its incorporation into the peptide substrate is no longer detectable. 50 ul of the reaction in the 384-well polypropylene plate was then transferred to a 384-well Flashplate and the biotinylated peptides were allowed to bind to the streptavidin surface for at least 1 hour before being washed once with 0.1% Tween20 in a Biotek EL×405 plate washer. The plates were then read in a PerkinElmer TopCount plate reader to measure the quantity of ^3H-labeled peptide bound to the Flashplate surface, measured as disintegrations per minute (dpm) or alternatively, referred to as counts per minute (cpm). […]

The mark [1] stands for this setting: biochemical evaluation, peptide substrate, read-out: PRMT6 IC50.
Setting [2] is: single experiment or average of multiple experiments, read-out: PRMT6 biochemical evaluation (numerical).
The mark [3] stands for this setting: PRMT6 biochemical evaluation (numerical), single experiment or average of multiple experiments.

pIC50: −log10 of the molar value. Read-outs that look alike come from different tables or passages of the source.

human PRMT6, sequence (Q96LA8 with tags, fused parts or gaps): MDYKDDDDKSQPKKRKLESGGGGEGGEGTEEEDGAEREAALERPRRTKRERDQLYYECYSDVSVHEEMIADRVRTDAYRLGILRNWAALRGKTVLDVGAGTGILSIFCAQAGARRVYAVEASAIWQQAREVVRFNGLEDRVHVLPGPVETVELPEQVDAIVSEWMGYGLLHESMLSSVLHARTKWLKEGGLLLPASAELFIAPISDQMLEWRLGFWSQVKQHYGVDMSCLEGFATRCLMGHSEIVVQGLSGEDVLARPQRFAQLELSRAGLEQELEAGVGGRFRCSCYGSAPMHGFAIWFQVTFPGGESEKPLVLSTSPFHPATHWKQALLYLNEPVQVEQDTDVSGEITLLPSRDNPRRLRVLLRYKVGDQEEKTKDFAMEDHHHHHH

As for `CN(CCN)Cc1n[nH]c2ccc(OCc3ccccc3)cc12` [Compound 1B], the pIC50 is above 7.00 under setting [1] and 8.03 under setting [2].

On to `CNCCN(C)Cc1n[nH]c2ccc(OCc3cccc(C(F)(F)F)c3)cc12` [Compound 72], for which the pIC50 under setting [1] was above 7.00 and the pIC50 under setting [2] is 7.90.

Regarding `CNCCN(C)Cc1n[nH]c2ccc(OCCCOC)cc12` [Compound 6], the pIC50 is above 7.00 under setting [1] and 7.41 under setting [2].

As for `CNCCN(C)Cc1n[nH]c2cccc(OCCC(C)C)c12` [Compound 31], the pIC50 under setting [1] is 5.52 to 6.00 and the pIC50 under setting [2] was 6.87.

For the compound `CNCCN(C)Cc1n[nH]c2ccc(C(C)C)cc12` [Compound 42, N^1-((5-isopropyl-1H-indazol-3-yl)methyl)-N^1,N^2-dimethylethane-1,2-diamine], the pIC50 is above 7.00 under setting [1] and 5.63 under setting [2].

`CNCCN(C)Cc1n[nH]c2ccc(Oc3ccccc3C)cc12` [Compound 60]: the pIC50 is 6.00 to 7.00 under setting [1] and 6.61 under setting [2].

Take `CNCCN(C)Cc1n[nH]c2ccc(OCc3ccn(C)n3)cc12` [Compound 20]: the pIC50 under setting [1] is above 7.00 and the pIC50 under setting [2] was 7.43.

Regarding `CNCCN(C)Cc1n[nH]c2ccc(OC(C)C)cc12` [Compound 64], the pIC50 reads like this: under setting [1], above 7.00; under setting [2], 6.97.

For the compound `CNCCN(C)Cc1n[nH]c2ccc(OCc3cccc(C(C)=O)c3)cc12` [Compound 73], the pIC50 is, setting by setting: under setting [1], above 7.00; under setting [2], 8.02.

Compound `CNCCN(C)Cc1n[nH]c2ccc(Oc3ccc(OC)cc3)cc12` [Compound 59] had a pIC50 of 6.00 to 7.00. This compound had a pIC50 under setting [3] of 6.51.

As to `CNCCN(C)Cc1nn(C)c2ccc(OCC(C)C)cc12` [Compound 3, N^1-((5-iso-butoxy-1-methyl-1H-indazol-3-yl)methyl)-N^1,N^2-dimethylethane-1,2-diamine], the pIC50 is, setting by setting: under setting [1], 6.00 to 7.00; under setting [2], 6.29.

Take `CNCCN(C)Cc1n[nH]c2ccc(Oc3ccc(Cl)cc3)cc12` [Compound 57]: the pIC50 runs as follows: under setting [1], 6.00 to 7.00; under setting [2], 6.32.

Turning to `CNCCN(C)Cc1n[nH]c2cccc(OCCC(O)CO)c12` (stereo not shown) [Compound 40], the pIC50 is 5.52 to 6.00 under setting [1] and 6.65 under setting [2].

`CCCOc1ccc2[nH]nc(CN(C)CCNC)c2c1` [Compound 65]: the pIC50 is above 7.00 under setting [1] and 6.98 under setting [2].

On to `CNCCN(C)Cc1n[nH]c2ccc(OCCOC)cc12` [Compound 5, N^1-((5-(2-methoxyethoxy)-1H-indazol-3-yl)methyl)-N^1,N^2-dimethylethane-1,2-diamine], for which the pIC50 reads like this: under setting [1], above 7.00; under setting [2], 7.07.

As to `CNCCN(C)Cc1n[nH]c2ccc(OCc3ccn(CC(C)C)n3)cc12` [Compound 33], the pIC50 by setting is: under setting [1], above 7.00; under setting [2], 5.96.

For the compound `CNCCN(C)Cc1n[nH]c2ccc(Oc3cccc(C#N)c3)cc12` [Compound 28], the pIC50 under setting [1] is 6.00 to 7.00 and the pIC50 under setting [2] is 6.82.

As to `CNCCN(C)Cc1n[nH]c2ccc(Oc3cccc(OC)c3)cc12` [Compound 22], the pIC50 reads like this: under setting [1], above 7.00; under setting [2], 7.48.

With `CNCCN(C)Cc1nn(C(C)C)c2ccc(OCc3ccc(C#N)cc3)cc12` [Compound 62], the pIC50 by setting is: under setting [1], 6.00 to 7.00; under setting [2], 6.72.

Regarding `CNCCN(C)Cc1n[nH]c2ccc(OCc3ccc(C(C)=O)cc3)cc12` [Compound 23], the pIC50 reads like this: under setting [1], above 7.00; under setting [2], 7.02.

As to `CNCCN(C)Cc1n[nH]c2ccc(OC)cc12` [Compound 35], the pIC50 reads like this: under setting [1], 5.00 to 5.52; under setting [2], 7.45.

Consider `CNCCN(C)Cc1n[nH]c2ccc(OCC3CCCC3)cc12` [Compound 52], for which the pIC50 by setting is: under setting [1], 5.52 to 6.00; under setting [2], 5.22.

As to `CNCCN(C)Cc1n[nH]c2ccc(C3=CCCCC3)cc12` [Compound 48], the pIC50 runs as follows: under setting [1], above 7.00; under setting [2], 7.18.

Regarding `CNCCN(C)Cc1n[nH]c2ccc(OCc3cccc(C(N)=O)c3)cc12` [Compound 66], the pIC50 reads like this: under setting [1], above 7.00; under setting [2], 7.25.

With `CNCCN(C)Cc1nn(C)c2ccc(OCc3ccc(C#N)cc3)cc12` [Compound 32], the pIC50 was above 7.00 under setting [1] and 6.81 under setting [2].

As to `CNCCN(C)Cc1n[nH]c2ccc(OC3CCOCC3)cc12` [Compound 29, N^1,N^2-dimethyl-N^1-((5-((tetrahydro-2H-pyran-4-yl)oxy)-1H-indazol-3-yl)methyl)ethane-1,2-diamine], the pIC50 is, setting by setting: under setting [1], 6.00 to 7.00; under setting [2], 6.75.

With `CNCCN(C)Cc1n[nH]c2ccc(OCc3ccc(C(N)=O)cc3)cc12` [Compound 69], the pIC50 is, setting by setting: under setting [1], above 7.00; under setting [2], 7.47.

For the compound `CNCCN(C)Cc1n[nH]c2ccc(Oc3ccccc3OC(C)C)cc12` [Compound 56], the pIC50 was 6.00 to 7.00 under setting [1] and 6.11 under setting [2].

As for `CNCCN(C)Cc1c2cc(OCc3ccc(C#N)cc3)ccc2nn1C(C)C` [Compound 34], the pIC50 was 5.00 to 5.52 under setting [1] and 7.83 under setting [2].

With `CNCCN(C)Cc1n[nH]c2ccc(Oc3ccc(C#N)cc3)cc12` [Compound 37], the pIC50 was 6.00 to 7.00 under setting [1] and 5.31 under setting [2].

Regarding `CNCCN(C)Cc1n[nH]c2ccc(OCC3CCCCC3)cc12` [Compound 54], the pIC50 is 6.00 to 7.00 under setting [1] and 5.63 under setting [2].

Turning to `CNCCN(C)Cc1n[nH]c2ccc(Oc3ccccc3C(F)(F)F)cc12` [Compound 49], the pIC50 under setting [1] was 5.00 to 5.52 and the pIC50 under setting [2] was 7.28.

For `CC(C)COc1ccc2[nH]nc(CN(C)CCN)c2c1` [Compound 2, N1-((5-iso-butoxy-1H-indazol-3-yl)methyl)-N1-methylethane-1,2-diamine], the pIC50 is, setting by setting: under setting [1], 6.00 to 7.00; under setting [2], 6.95.

Regarding `CNCCN(C)Cc1n[nH]c2ccc(OCc3ccc(C#N)cc3)cc12` [Compound 13], the pIC50 is, setting by setting: under setting [1], above 7.00; under setting [2], 8.35.

In the case of `CNCCN(C)Cc1n[nH]c2ccc(N3CCC4(CCCCC4)CC3)cc12` [Compound 43, N^1-((5-(3-azaspiro[5.5]undecan-3-yl)-1H-indazol-3-yl)methyl)-N^1,N^2-dimethylethane-1,2-diamine], the pIC50 was above 7.00. The compound also had a pIC50 under setting [3] of 5.74.

Regarding `CNCCN(C)Cc1n[nH]c2ccc(OC(C)Cc3ccccc3)cc12` (stereo not shown) [Compound 9], the pIC50 under setting [1] was above 7.00 and the pIC50 under setting [2] is 7.86.

Consider `CNCCN(C)Cc1n[nH]c2cccc(OCCCC(O)CO)c12` (stereo not shown) [Compound 41, 5-((3-((methyl(2-(methylamino)ethyl)amino)methyl)-1H-indazol-4-yl)oxy)pentane-1,2-diol], for which the pIC50 is, setting by setting: under setting [1], 5.52 to 6.00; under setting [2], 6.84.

With `CNCCN(C)Cc1n[nH]c2ccc(Oc3cccc(OC(C)C)c3)cc12` [Compound 67], the pIC50 reads like this: under setting [1], above 7.00; under setting [2], 7.25.

On to `CNCCN(C)Cc1n[nH]c2ccc(OCc3cc[nH]n3)cc12` [Compound 17], for which the pIC50 under setting [1] is above 7.00 and the pIC50 under setting [2] was 8.11.

As to `CNCCN(C)Cc1n[nH]c2ccc(OCC(C)c3ccccc3)cc12` (stereo not shown) [Compound 19], the pIC50 reads like this: under setting [1], above 7.00; under setting [2], 7.71.

With `CNCCN(C)Cc1n[nH]c2ccc(N3CCCCC3)cc12` [Compound 46, N^1,N^2-dimethyl-N^1-((5-(piperidin-1-yl)-1H-indazol-3-yl)methyl)ethane-1,2-diamine], the pIC50 by setting is: under setting [1], above 7.00; under setting [2], 7.39.

Values taken from US9765035B2 (priority 2013, dated 2017).
